Entries after “also recorded” stand apart in the source; their conditions may differ. Where no end group is shown, it is not given here.
What was measured:
[1] = tested on: Spodoptera litura early third-instar larvae; assay: Microinjection bioassay of insecticidal activity in Spodoptera litura third-instar larvae; format: in vivo; conditions: for insecticidal activity (in words): S. litura third instar larvae; for LD50: S. litura larvae, 50% mortality at 24 hours post-injection
Procedure: Due to the small amounts of material involved, bioassays are realized on a microscale, using a microinjection technique as described below. Drosophila melanogaster was used first as an insect model since it is amenable to injection of volumes of 50 nl volumes or less, and is very sensitive to spider toxins. In order to confirm activity against an economically important crop pest, Spodoptera litura early third-instar larvae were also used. S. litura is a highly polyphagous species, and is considered an international pest on cotton, tobacco, tomato, cabbage, cauliflower, peanuts, beans and other plants. However, S. litura is more resistant to toxins than D. melanogaster, and it requires injection of 10 to 100-fold higher doses. Application of the microinjection technique to S. litura larvae enabled its use as a test insect while lowering the amounts of sample used in the bioassays. In particular, early 3rd instar larvae (3 to 5 mg) can be injected successfully with volumes up to 800 nl of toxin composition. Lethal and paralytic activity of may be evaluated using D. melanogaster adult flies (˜0.7 mg/fly) and S. litura early third-instar larvae (5-8 mg/larva). See Escoubas, P., Pahna, H. F., Nakajima, T. (1995), “A Microinjection technique using Drosophila melanogaster for bioassay-guided isolation of neurotoxins in arthropod venoms”, Toxicon, 33(12), 1549-1555.
To perform the bioassay of SV toxin peptides, SV toxin peptides are injected into the dorsolateral area of Drosophila melanogaster adult flies or into the pronotum of 3rd instar Spodoptera litura larvae using a glass micropipette mounted on an automatic microinjector (A203XVY Nanoliter injector, WPI Precision Instruments, Sarasota, Fla., USA). Flies and larvae are examined five seconds after injection for evidence of involuntary contraction of body segments.

mice = assay: Intracerebroventricular injection in mice; format: in vivo, mice (C57B16); conditions: ICV injection, 2 micrograms per mouse
Procedure: Intracerebroventricular injections (0.1 111 crude venom-equivalent in 5 μl of 20 mg/ml BSA and 9 mg/ml NaCl) of each toxin were also performed on 20 g male mice (C57B16).

For “XacI (ECIGGGGGCSVFSGPSCCGGTCKCKFVLIFPKGCHCT)”, the paralysis of larvae ([1]; isolated peptide, injection, assay procedure of Example 3) was “instantaneous paralysis” and the “time to some signs of recovery of treated larvae post-injection” value ([1]; possibly low injection dose, below the LD50) was 8 to 12 h.

“PaspIII (ADCLNEGDWCADWSGPSCCGEMWCSCPGFGKCRCKK; disulfide (positions not given here); also: four disulfide bridges, pairing not given here)” was tested, and the “insecticidal activity (in words)” value ([1]; injection) was “insecticidal activity”.

For “PaspI (GCLGEGEKCADWSGPSCCDGFYCSCRSMPYCRCRNNS-NH2; disulfide (positions not given here); also: four disulfide bridges, pairing not given here)”, the LD50 ([1]; injection) was “not significantly different from the LD50 measured for toxin AaIT”, the LD50 ([1]; injection, listed as PaspI-NH2) was 9.7+4.1 μg/g and the “insecticidal activity (in words)” value ([1]; injection) was “most potent toxin towards S. litura; also recorded: greatest degree of insecticidal activity”.

In the case of “PaspIV (ACATKNQRCASWAGPYCCDGFYCSCRSYPGCMCRPNS; disulfide (positions not given here); also: four disulfide bridges, pairing not given here)”, the “insecticidal activity (in words)” value ([1]; injection) is reported as “insecticidal activity; also recorded: putatively least potent”.

In the case of “PaspII (ACVGDGQRCASWSGPYCCDGYYCSCRSMPYCRCRNNS; disulfide (positions not given here); also: four disulfide bridges, pairing not given here)”, the “insecticidal activity (in words)” value ([1]; injection) is reported as “insecticidal activity” and the “toxic effect on mice” value (mice) is reported as “did have a toxic effect”.

Reference: patent US20020197689A1, “Insecticidal peptides and methods for use of same” (priority 2000, published 2002)
